Data taken from patent US9522917B2, “Bruton's tyrosine kinase inhibitors for hematopoietic mobilization” (Acerta Pharma B.V., priority 2012, dated 2016).

Assays:
[1] = test system: Human CD34+ hematopoietic progenitor cells; assay: In vitro Transwell migration of human CD34+ cells towards an SDF-1 gradient; format: cell-based
Method: Human CD34+ hematopoietic progenitor cells were isolated from G-CSF mobilized peripheral blood and incubated with varying concentrations (0.1 μM, 1.0 μM and 10 μM) of the pyrimidine-based BTK inhibitor 1-[(3R)-3-[4-amino-3-(4-phenoxyphenyl)pyrazolo[3,4-d]pyrimidin-1-yl]piperidin-1-yl]prop-2-en-1-one for one hour at 37° C., 5% CO2 in serum free media (0.5% bovine serum albumin in RPMI media). Cells were then transferred to the upper chamber of a Transwell migration plate (5.0 um pore size, Costar Inc.). The lower chamber contained only serum-free media with 100 ng/ml SDF-1. Cells were incubated for five hours at 37° C., 5% CO2 to allow for cell migration from the upper chamber to the lower chamber. Cells that migrated into the lower chamber were counted using a hemocytometer.

stem cell migration = details: cited from earlier work

| SMILES | inhibition of stem cell migration ([1]; 0.1 μM, 1.0 μM and 10 μM, one hour preincubation, five hours migration to 100 ng/ml SDF-1, FIG. 1) | activity at lower concentration than reported for plerixafor ([1]; versus plerixafor (50 μM) in similar assays) | concentration reported for activity in similar assays (stem cell migration) |
| --- | --- | --- | --- |
| C=CC(=O)N1CCC[C@@H](n2nc(-c3ccc(Oc4ccccc4)cc3)c3c(N)ncnc32)C1 [Btk inhibitor, 1-[(3R)-3-[4-amino-3-(4-phenoxyphenyl)pyrazolo[3,4-d]pyrimidin-1-yl]piperidin-1-yl]prop-2-en-1-one] | inhibition of stem cell migration was seen at all tested concentrations | 500 fold | – |
| c1cc(CN2CCCNCCNCCCNCC2)ccc1CN1CCCNCCNCCCNCC1 [plerixafor] | – | – | 50 µM |
